Test [1] has as its target STK25/YSK1 (Homo sapiens, UniProt O00506). The settings on record: 1 μM; Run 1, Run 2.
In test [2] the target is ALK (Homo sapiens, UniProt Q9UM73). The test can be described thus: biochemical. The settings on record: read-out: % enzyme activity, 1 μM; Run 1, Run 2.
The target in test [3] is AKT1 (Homo sapiens, UniProt P31749). The settings on record: 1 μM; Run 1, Run 2.
Test [4] concerns the target MST4 (Homo sapiens, UniProt Q9P289). The test can be described thus: biochemical. The following applies: read-out: % enzyme activity, 1 μM; Run 1, Run 2.
The target in test [5] is PKCb2 (Homo sapiens, UniProt P05771). The settings on record: 1 μM; Run 1, Run 2.
Test [6] addresses PKCd (Homo sapiens, UniProt Q05655). The following applies: 1 μM; Run 1, Run 2.
Test [7] addresses SGK2 (Homo sapiens, UniProt Q9HBY8). The settings on record: 1 μM; Run 1, Run 2.
Test [8] concerns the target MLK3/MAP3K11 (Homo sapiens, UniProt Q16584). As to the kind of experiment: biochemical. The settings on record: read-out: % enzyme activity, 1 μM; Run 1, Run 2.
Test [9] has as its target PAK1 (Homo sapiens, UniProt Q13153). As to the kind of experiment: biochemical. The following applies: read-out: % enzyme activity, 1 μM; Run 1, Run 2.
For test [10], the target named is T1, RIPK4 (Homo sapiens, UniProt P57078).
T1 sequence (P57078 1-832): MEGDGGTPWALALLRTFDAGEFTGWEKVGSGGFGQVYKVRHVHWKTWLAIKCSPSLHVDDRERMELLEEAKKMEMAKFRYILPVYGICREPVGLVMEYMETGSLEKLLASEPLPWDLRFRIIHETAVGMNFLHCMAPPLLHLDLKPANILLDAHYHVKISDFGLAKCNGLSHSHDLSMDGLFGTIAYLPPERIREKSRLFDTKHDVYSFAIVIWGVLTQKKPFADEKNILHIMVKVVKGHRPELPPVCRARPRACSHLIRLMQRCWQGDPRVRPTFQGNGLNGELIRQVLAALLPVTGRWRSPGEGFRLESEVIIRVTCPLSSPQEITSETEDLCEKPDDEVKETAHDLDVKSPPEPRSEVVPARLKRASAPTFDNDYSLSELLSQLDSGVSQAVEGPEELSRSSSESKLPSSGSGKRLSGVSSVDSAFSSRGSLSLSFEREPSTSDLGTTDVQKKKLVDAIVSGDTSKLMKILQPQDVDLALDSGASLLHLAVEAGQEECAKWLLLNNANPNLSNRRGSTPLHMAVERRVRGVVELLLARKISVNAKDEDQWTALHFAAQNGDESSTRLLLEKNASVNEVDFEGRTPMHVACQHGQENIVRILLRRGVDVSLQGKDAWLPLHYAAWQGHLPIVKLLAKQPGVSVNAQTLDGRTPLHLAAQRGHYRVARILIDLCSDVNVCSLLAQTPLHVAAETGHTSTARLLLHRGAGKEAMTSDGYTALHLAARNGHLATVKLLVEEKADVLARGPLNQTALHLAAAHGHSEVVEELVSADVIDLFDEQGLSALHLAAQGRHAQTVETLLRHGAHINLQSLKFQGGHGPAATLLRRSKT
The test can be described thus: biochemical. The following applies: read-out: % enzyme activity, 1 μM; Run 1, Run 2.

The target of test [11] is AURORA B (Homo sapiens, UniProt Q96GD4). As to the kind of experiment: biochemical. The settings on record: read-out: % enzyme activity, 1 μM; Run 1, Run 2.
Test [12] deals with ALK3/BMPR1A.
For test [13], the target named is CDK2/Cyclin A1 (Homo sapiens, UniProt P24941). As to the kind of experiment: biochemical. The settings on record: read-out: % enzyme activity, 1 μM; Run 1, Run 2.
Test [14] has as its target T2, PDK1/PDPK1 (Homo sapiens, UniProt O15530).
T2 sequence (O15530 1-556): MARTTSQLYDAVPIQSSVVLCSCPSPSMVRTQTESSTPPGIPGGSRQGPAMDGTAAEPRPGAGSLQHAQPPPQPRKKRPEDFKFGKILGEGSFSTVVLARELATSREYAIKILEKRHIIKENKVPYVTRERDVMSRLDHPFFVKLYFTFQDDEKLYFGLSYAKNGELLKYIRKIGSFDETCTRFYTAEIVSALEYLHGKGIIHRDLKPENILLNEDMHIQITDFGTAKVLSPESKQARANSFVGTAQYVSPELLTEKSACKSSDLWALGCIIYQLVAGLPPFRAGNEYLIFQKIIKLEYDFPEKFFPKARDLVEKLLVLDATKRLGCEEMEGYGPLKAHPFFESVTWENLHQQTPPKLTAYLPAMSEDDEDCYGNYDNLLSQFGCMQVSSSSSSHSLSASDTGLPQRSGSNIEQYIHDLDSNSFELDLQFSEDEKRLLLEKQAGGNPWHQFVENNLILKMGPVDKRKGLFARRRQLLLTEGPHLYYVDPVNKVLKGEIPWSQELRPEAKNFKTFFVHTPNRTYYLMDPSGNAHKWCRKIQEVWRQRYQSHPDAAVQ
As to the kind of experiment: biochemical. The following applies: read-out: % enzyme activity, 1 μM; Run 1, Run 2.

Test [15] addresses PKAcg (Homo sapiens, UniProt P22612). The settings on record: 1 μM; Run 1, Run 2.
Test [16] deals with T3, CHK1 (Homo sapiens, UniProt O14757).
T3 sequence (O14757 1-476): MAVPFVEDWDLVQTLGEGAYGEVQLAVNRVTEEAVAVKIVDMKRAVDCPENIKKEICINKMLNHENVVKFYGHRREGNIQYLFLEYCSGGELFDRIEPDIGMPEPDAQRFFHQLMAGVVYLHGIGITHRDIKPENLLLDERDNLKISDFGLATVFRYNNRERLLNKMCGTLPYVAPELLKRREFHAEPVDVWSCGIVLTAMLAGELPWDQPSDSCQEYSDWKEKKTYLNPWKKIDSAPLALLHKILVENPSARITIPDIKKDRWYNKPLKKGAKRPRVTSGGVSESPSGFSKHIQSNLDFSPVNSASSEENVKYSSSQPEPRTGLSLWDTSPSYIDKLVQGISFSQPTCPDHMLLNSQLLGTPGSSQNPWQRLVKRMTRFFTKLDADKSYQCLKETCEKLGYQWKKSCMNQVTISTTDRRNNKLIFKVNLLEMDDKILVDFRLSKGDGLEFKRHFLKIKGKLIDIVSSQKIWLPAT
The following applies: 1 μM; Run 1, Run 2.

“And” between values parts separate entries of the source, which are not always exact repeats. Identical values can stand only once.

MST4, sequence (Q9P289 whole entry): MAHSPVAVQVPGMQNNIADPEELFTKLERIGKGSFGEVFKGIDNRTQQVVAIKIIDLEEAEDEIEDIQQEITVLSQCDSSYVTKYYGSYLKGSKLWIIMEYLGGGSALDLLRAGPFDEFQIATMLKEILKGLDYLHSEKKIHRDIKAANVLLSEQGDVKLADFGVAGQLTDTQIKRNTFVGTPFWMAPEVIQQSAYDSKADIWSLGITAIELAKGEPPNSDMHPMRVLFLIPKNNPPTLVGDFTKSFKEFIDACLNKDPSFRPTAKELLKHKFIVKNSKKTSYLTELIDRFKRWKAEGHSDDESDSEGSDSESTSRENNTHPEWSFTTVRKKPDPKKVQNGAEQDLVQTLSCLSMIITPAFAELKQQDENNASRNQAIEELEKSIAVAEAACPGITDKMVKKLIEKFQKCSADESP
PAK1, sequence (Q13153 whole entry): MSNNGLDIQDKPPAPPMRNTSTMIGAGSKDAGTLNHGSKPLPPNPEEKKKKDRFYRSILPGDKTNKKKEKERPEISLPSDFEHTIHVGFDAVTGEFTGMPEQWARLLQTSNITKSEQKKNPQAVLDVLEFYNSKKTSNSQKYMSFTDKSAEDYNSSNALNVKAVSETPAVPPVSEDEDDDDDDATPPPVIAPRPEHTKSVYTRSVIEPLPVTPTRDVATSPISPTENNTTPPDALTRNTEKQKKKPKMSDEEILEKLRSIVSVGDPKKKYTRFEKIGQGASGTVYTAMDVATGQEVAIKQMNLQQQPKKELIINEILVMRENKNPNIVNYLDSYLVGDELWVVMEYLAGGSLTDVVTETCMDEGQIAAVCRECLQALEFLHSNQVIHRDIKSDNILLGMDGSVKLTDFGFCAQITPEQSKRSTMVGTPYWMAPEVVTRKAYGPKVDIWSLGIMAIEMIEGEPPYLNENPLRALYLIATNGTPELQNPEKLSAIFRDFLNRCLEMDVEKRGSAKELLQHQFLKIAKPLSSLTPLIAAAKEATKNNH
PKCd, sequence (Q05655 whole entry): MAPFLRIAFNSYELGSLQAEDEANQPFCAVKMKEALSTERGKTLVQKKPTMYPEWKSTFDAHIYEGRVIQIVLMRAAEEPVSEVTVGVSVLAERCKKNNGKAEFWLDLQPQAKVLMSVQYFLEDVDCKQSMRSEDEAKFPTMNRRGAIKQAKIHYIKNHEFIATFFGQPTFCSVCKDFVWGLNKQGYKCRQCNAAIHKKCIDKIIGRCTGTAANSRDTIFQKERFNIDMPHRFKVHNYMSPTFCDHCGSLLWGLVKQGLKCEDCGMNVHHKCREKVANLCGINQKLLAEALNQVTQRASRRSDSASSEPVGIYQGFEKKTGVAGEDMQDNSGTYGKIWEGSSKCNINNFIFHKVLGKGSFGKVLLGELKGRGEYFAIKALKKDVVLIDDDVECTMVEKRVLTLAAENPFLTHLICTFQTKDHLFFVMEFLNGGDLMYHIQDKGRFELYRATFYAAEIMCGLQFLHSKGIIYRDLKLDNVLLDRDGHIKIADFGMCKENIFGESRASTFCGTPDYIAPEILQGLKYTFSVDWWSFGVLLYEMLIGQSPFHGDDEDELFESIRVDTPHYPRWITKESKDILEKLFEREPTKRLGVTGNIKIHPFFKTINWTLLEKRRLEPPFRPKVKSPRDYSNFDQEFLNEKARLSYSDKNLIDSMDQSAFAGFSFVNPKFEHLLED
AKT1, sequence (P31749 whole entry): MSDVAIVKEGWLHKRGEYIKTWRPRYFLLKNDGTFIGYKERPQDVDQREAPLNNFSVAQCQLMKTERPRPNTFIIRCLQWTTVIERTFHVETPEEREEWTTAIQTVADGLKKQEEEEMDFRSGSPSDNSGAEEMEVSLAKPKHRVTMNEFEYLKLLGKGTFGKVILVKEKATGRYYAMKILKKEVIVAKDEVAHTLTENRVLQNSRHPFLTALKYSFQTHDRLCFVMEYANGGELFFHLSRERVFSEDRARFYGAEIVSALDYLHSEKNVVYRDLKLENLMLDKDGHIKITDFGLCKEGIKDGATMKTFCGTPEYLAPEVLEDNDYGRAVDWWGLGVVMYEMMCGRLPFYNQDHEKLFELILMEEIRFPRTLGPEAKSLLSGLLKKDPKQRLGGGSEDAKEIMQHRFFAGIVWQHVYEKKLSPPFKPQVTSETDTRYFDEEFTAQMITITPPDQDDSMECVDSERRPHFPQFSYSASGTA
STK25/YSK1, sequence (O00506 whole entry): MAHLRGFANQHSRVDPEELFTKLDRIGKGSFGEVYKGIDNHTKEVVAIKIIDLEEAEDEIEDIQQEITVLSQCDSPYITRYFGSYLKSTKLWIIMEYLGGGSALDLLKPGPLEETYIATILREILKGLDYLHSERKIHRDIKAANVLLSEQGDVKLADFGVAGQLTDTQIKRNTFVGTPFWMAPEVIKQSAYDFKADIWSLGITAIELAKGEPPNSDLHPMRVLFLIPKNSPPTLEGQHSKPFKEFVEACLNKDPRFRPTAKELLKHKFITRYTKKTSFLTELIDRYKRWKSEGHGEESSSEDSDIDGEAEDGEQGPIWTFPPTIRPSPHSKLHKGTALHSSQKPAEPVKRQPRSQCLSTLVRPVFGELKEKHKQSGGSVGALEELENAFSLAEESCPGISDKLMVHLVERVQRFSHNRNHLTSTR
PKCb2, sequence (P05771 1-673 isoform P05771-2): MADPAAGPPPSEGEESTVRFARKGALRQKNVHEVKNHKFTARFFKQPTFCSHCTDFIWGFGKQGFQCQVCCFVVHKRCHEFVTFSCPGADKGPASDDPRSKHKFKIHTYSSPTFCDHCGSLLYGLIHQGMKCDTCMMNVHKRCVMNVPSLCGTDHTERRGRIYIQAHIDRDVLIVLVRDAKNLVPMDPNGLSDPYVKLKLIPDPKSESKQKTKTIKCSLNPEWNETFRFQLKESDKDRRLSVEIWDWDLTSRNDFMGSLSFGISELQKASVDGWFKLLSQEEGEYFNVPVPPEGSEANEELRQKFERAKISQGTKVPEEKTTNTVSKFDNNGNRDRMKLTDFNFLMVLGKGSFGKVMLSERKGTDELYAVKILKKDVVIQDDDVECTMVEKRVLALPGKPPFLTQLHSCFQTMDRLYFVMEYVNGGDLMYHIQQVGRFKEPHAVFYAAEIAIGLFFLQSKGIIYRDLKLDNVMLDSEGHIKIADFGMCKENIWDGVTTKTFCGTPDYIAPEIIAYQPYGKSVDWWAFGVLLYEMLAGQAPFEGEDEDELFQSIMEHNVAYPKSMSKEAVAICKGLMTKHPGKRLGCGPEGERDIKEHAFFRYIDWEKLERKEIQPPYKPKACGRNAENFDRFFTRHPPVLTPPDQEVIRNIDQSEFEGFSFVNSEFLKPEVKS
ALK, sequence (Q9UM73 19-1620): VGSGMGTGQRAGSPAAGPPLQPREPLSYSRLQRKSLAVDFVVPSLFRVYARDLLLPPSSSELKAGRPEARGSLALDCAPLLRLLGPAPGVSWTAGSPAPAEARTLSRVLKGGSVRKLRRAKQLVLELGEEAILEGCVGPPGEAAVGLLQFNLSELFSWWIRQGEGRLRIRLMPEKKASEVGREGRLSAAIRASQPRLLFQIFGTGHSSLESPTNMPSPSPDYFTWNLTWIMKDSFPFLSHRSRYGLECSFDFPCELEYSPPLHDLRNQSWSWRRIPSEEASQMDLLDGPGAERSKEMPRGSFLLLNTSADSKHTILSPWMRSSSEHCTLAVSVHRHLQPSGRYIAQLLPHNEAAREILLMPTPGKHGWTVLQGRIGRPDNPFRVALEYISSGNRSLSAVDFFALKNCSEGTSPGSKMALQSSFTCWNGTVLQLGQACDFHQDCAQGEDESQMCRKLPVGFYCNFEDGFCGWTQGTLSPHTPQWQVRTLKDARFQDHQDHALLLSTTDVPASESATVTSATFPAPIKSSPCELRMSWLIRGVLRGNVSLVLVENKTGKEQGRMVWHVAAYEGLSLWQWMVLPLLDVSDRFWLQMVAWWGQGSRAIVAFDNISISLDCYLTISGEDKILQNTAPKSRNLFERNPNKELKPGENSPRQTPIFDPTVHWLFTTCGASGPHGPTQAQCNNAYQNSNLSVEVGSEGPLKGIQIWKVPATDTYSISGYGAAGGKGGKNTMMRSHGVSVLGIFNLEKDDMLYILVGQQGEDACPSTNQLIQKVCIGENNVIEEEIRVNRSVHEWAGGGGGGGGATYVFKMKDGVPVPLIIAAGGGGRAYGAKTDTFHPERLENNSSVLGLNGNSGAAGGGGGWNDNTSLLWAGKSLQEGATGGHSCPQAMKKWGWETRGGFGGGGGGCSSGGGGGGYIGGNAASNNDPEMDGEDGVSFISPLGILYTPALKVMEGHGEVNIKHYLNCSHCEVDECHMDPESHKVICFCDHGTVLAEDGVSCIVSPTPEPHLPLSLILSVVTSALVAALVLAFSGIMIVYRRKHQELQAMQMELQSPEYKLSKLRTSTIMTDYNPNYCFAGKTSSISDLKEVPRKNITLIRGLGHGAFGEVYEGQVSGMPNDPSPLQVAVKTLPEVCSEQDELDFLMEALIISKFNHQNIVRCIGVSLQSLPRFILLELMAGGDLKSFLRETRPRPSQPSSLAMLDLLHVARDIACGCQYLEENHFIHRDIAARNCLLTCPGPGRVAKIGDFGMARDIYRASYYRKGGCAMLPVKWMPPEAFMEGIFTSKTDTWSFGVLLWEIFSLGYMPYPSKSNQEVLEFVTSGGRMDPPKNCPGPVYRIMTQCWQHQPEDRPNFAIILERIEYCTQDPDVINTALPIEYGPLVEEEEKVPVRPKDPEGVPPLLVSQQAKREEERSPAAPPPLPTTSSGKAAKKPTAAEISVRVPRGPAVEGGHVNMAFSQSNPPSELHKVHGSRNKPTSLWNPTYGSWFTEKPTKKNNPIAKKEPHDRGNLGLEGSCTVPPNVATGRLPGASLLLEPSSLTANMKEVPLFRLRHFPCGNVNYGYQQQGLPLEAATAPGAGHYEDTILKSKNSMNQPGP

On to `COc1cc(-c2cncc(-c3ccc(N4CCN(C)CC4)cc3)c2C)cc(F)c1C(N)=O` [Compound 26a, 2-Fluoro-6-methoxy-4-(4-methyl-5-(4-(4-methylpiperazin-1-yl)phenyl)pyridin-3-yl)benzamide], for which the “% enzyme activity” value worked out at 94.98% in [1]; 102.39% in test [3]; 106.51% in [5]; 97.72% in test [6]; 100.43% in [7]; 93.99% in test [15]. Besides, the “% enzyme activity” value in test [16] is reported as 94.26%. Moreover, the remaining activity at 1 µM in test [2] amounted to 99.9%; in test [4], 86.9%; in test [8], 99.4%; in [9] it was 105%; in test [10], 75.5%; in test [11], 102%. In addition, the remaining activity at 1 µM in [13] came to 99.9%; in test [14] it was 94.3%. Besides, the % enzyme activity at 1 μM in test [12] was 40.2% and 38.4%.
In the case of `COc1cc(-c2cncc(-c3ccc(N4C[C@@H](C)N(C)[C@@H](C)C4)cc3)c2C)cc(F)c1C(N)=O` [Compound 26c, 2-Fluoro-6-methoxy-4-(4-methyl-5-(4-((3R,5S)-3,4,5-trimethylpiperazin-1-yl)phenyl)pyridin-3-yl)benzamide], the “% enzyme activity” value in test [1] is 94.06%; in [3], 104.50%; in test [5], 97.56%; in test [6] it was 100.12%; in test [7], 100.91%; in test [15] it was 98.97%. Further, the “% enzyme activity” value in test [16] is 100.95%. Besides, the remaining activity at 1 µM in [2] is 101%; in [4], 95%; in test [8], 96.7%; in test [9], 103%; in test [10], 86.1%; in test [11], 105%. Further, the remaining activity at 1 µM in test [13] amounted to 98.2%; in test [14] it was 95.9%. Also, in test [12], the % enzyme activity at 1 μM is 50.5% and 50%.

These data come from publication PMC8213057, “Targeting ALK2: An Open Science Approach to Developing Therapeutics for the Treatment of Diffuse Intrinsic Pontine Glioma” (Journal of Medicinal Chemistry, 2020).
